Test results reported in US5254801A, “Heterologous dominant conditional lethal gene which is a phosphonate monoester hydrolase and use thereof in plants” (Monsanto Company, priority 1990, dated 1993).
Entries after “also recorded” stand apart in the source; their conditions may differ.

How the values were obtained:
[1] = biological target: T1, phosphonate monoester hydrolase (PEH) (Trinickia caryophylli, UniProt Q45087); experiment: Hydrolysis of protoxin to glyphosate by phosphonate monoester hydrolase; type: biochemical, Pseudomonas caryophilli PG2982
T1 sequence (Q45087 1-514): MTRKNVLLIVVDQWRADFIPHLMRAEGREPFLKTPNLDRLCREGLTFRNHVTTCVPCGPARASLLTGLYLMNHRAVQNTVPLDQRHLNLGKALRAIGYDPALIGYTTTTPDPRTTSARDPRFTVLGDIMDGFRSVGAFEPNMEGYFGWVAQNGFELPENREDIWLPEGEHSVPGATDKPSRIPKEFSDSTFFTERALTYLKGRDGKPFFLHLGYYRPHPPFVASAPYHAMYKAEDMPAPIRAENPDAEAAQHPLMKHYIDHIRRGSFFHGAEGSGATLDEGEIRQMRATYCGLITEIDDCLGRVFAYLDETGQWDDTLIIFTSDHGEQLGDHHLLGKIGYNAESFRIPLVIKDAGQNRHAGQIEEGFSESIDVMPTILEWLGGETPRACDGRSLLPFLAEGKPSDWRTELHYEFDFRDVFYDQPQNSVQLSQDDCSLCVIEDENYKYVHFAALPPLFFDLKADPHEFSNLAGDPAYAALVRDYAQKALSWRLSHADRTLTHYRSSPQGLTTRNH
Experimental: The critical tests for a prophytotoxin to be used in negative selection, cell ablation and as a gametocide are that the compound is non-phytotoxic per se but can be hydrolyzed into a phytotoxin by the phosphonate monoester hydrolase protein. The most general and specific method to determine if a protoxin is hydrolyzed to a toxic form of glyphosate is a HPLC assay. The compounds are dissolved at 100 mM concentration in a suitable buffer such as 10 mM TAPS, (N-Tris(hydroxymethyl)methyl-2-aminopropane sulfonic acid) pH 9.0. Triplicate samples (0.1 ml) of the compound are then diluted with 0.9 ml of 10 mM TAPS, pH 9.0 and with 0.9 ml 10 mM TAPS, pH 9.0 plus one unit (1 μmol/min) of enzyme. After 24 hour incubation at 25° C., the samples are injected onto a HPLC column for glyphosate analysis. […] The protoxin and glyphosate are separated on an anion exchange column. the glyphosate is oxidized as it elutes in the presence of bleach and is then derivatized by o-pthaldehyde to a fluorescent derivative which can be quantitatively measured by a fluorescence monitor. […] After two days, the plant is dissected into individual tissues and the amount of protoxin in each tissue determined. […] The tissue samples were then combusted and the amount of radiolabelled compound in each tissue determined by scintillation counting. […]

[2] = test system: E. coli JM101/pMON9428 (pehA:1); experiment: Conditional lethal phenotype test on MOPS minimal plates; type: cell-based
Text: The NcoI-BamHI pehA:1 fragment was removed from pMON9420 by restricting the DNA with both enzymes, separating the fragments on an agarose gel, and purifying the pehA fragment from the gel using the GeneClean kit. In a similar manner the BamHI-ClaI pehA:1 fragment was obtained from pMON9421 and both were ligated into an E. coli expression vector to reconstruct the pehA:1 gene behind the RecA promoter with the […] gene 10L leader. The resulting vector, pMON9428 (FIG. 3), was transformed into E. coli strain JM101 using calcium chloride transformation and transformants selected on LB agar with 100 μg/ml spectinomycin. A single colony was isolated and confirmed by restriction mapping to contain pMON9428. The JM101/pMON9428 was then streaked out on LB agar plates containing 100 μg/ml spectinomycin and […] XPP. As a control, JM101 containing the RecA expression vector without the pehA:1 gene was streaked out on the same plate. The JM101/pMON9428 formed blue colonies while the JM101 with the control vector formed white colonies. […] The JM101/pMON9428 and vector control strain were then plated on MOPS minimal medium containing 0.05 mM HK2 PO4 as the phosphate source and 100 μg/ml spectinomycin. […] To test for a conditional lethal phenotype, both strains were streaked side by side on a MOPS minimal plate with 0.05 mM KPO4, 100 μg/ml spectinomycin and 10 mM glyceryl glyphosate. […] To confirm the lethal phenotype was the result of the degradation of the glyceryl glyphosate and subsequent inhibition of aromatic amino acid biosynthesis by glyphosate, both E. coli strains were plated on MOPS minimal medium with 0.05 mM KPO4, 100 μg/ml spectinomycin, 10 mM glyceryl glyphosate and supplemented with aromatic compounds consisting of L-tyrosine, L-tryptophan, L-phenylalanine, each at 100 μg/ml, 2,3 -dihydroxybenzoicacid and para-aminobenzoic acid, each at 5 μg/ml. […] This confirmed that the conditional lethal phenotype observed in the presence of the glyceryl glyphosate was the result of its conversion to and subsequent inhibition of EPSPS by glyphosate.

O=C(O)CNCP(=O)(O)OCC(O)CO (stereo not drawn) [glyceryl glyphosate, glycine, N-([hydroxy (2,3 dihydroxy propoxy)phosphonyl]methyl)]
Substrate for / hydrolysis by phosphonate monoester hydrolase [1]: is a substrate for the phosphonate monoester hydrolases; also recorded: hydrolyze the glyceryl glyphosate into glycerol and glyphosate | Colony formation with aromatic compound supplement ([2]; 10 mM glyceryl glyphosate plus L-tyrosine, L-tryptophan, L-phenylalanine, 2,3-dihydroxybenzoic acid, para-aminobenzoic acid): formed colonies | Colony formation (lethal phenotype) ([2]; 10 mM glyceryl glyphosate, MOPS minimal plate): did not form visible colonies
